In ChEMBL document CHEMBL1201862, “PubChem BioAssay data set” (2004):
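48-hour exposure; five concentrations; linearly interpolated endpoints. GI50 is the concentration that inhibits growth by half.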 The source made the active and inactive calls. Rule as the data show it: active = GI50 up to about 1.1 µM and inactive = higher.

What was measured:
Assay in all cases: NCI tumour cell line growth inhibition, 48 h
[1] = system: OVCAR-5
[2] = system: T47D
[3] = system: UACC-62
[4] = system: U-251
[5] = system: TK-10
[6] = system: HCT-116
[7] = system: NCI-H23
[8] = system: Hs-578T
[9] = system: K562
[10] = system: SF-295
[11] = system: EKVX
[12] = system: SK-OV-3
[13] = system: NCI/ADR-RES
[14] = system: SK-MEL-28
[15] = system: UACC-257
[16] = system: PC-3
[17] = system: COLO 205
[18] = system: DU-145
[19] = system: SK-MEL-2
[20] = system: Malme-3M

Measured: GI50

COc1cc(O)c(C(=O)/C=C/c2ccc(O)cc2)cc1Oc1ccc(/C=C/C(=O)c2ccc(O)cc2O)cc1 [RHUSCHALCONE III]
inactive: [1] 13.7 µM | [2] 15.3 µM | [3] 8.61 µM | [4] 7.98 µM | [5] 9.79 µM | [6] 7.85 µM | [7] 11.1 µM | [8] 14.4 µM | [9] 9.75 µM | [10] 10.1 µM | [11] 13 µM | [12] 8.36 µM | [13] 10.1 µM | [14] 8.41 µM | [15] 10.1 µM | [16] 7.21 µM | [17] 8.43 µM | [18] 10.2 µM | [19] 10.1 µM | [20] 8.38 µM

Cc1cc(Cc2c(F)c(F)c(Cc3cc(C)no3)c(F)c2F)on1
inactive: [1] > 100 µM | [2] > 100 µM | [3] > 100 µM | [4] 64.1 µM | [5] 54.2 µM | [6] > 100 µM | [7] 65.8 µM | [8] 29.9 µM | [9] > 100 µM | [10] 39.9 µM | [11] > 100 µM | [12] 38.5 µM | [13] > 100 µM | [14] > 100 µM | [15] > 100 µM | [16] > 100 µM | [17] > 100 µM | [18] > 100 µM | [19] 32.7 µM | [20] > 100 µM

O=c1oc2ccc3ccccc3c2cc1-c1cn2ccsc2n1
inactive: [1] 24.9 µM | [2] 13 µM | [3] 16.2 µM | [4] 71.9 µM | [5] 17.9 µM | [6] 16 µM | [7] 25.2 µM | [8] 45.1 µM | [9] 17.3 µM | [10] 78.2 µM | [11] 16.1 µM | [12] > 100 µM | [13] 29.1 µM | [14] 26 µM | [15] 24.8 µM | [16] 26.7 µM | [17] 16.1 µM | [18] 19.9 µM | [19] > 100 µM | [20] 21.2 µM

C[C@H](c1ccccc1)n1c(N)c(-c2nc3ccccc3s2)c2ccc([N+](=O)[O-])cc2c1=O
inactive: [1] 11.5 µM | [2] 1.58 µM | [3] 4.33 µM | [4] 3.66 µM | [5] 10.2 µM | [6] 1.91 µM | [7] 1.87 µM | [8] 2.58 µM | [9] 1.23 µM | [10] 4.7 µM | [11] 25.1 µM | [12] 8.99 µM | [13] 2.84 µM | [14] 3 µM | [15] 11.8 µM | [16] 3.09 µM | [17] 5.43 µM | [18] 2.31 µM | [19] 2.94 µM | [20] 12.9 µM

NC(=O)[C@H](Cc1ccc(O)cc1)NC1=C(Cl)C(=O)c2c(O)ccc(O)c2C1=O
inactive: [1] 8.89 µM | [2] 2.15 µM | [3] 1.85 µM | [4] 2.97 µM | [5] 2.72 µM | [6] 1.57 µM | [7] 3.26 µM | [8] 3.71 µM | [9] 1.45 µM | [10] > 10 µM | [11] > 10 µM | [12] > 10 µM | [13] 2.8 µM | [14] 2.21 µM | [15] 3.15 µM | [16] 2.24 µM | [17] 1.5 µM | [18] 6.53 µM | [19] 9.02 µM | [20] 1.96 µM

Nc1nc(Cl)cc(Oc2ccc(Cl)cc2)n1
inactive: [1] > 56.1 µM | [2] 32.4 µM | [3] 29.9 µM | [4] > 56.2 µM | [5] 28.2 µM | [6] > 57.9 µM | [7] 29.5 µM | [8] > 53.7 µM | [9] > 55.8 µM | [10] > 55.8 µM | [11] > 100 µM | [12] > 55.2 µM | [13] > 70.3 µM | [14] > 57.3 µM | [15] 38.5 µM | [16] > 100 µM | [17] > 60.5 µM | [18] > 56.2 µM | [19] > 100 µM | [20] 34.3 µM

CC1CCCC(C(=O)CC2CC(=O)NC(=O)C2)C1=O (stereo not given)
inactive: [1] > 100 µM | [2] > 100 µM | [3] > 100 µM | [4] > 100 µM | [5] > 100 µM | [6] > 100 µM | [7] > 100 µM | [8] > 100 µM | [9] > 100 µM | [10] > 100 µM | [11] > 100 µM | [12] > 100 µM | [13] > 100 µM | [14] > 100 µM | [15] > 100 µM | [16] > 100 µM | [17] > 100 µM | [18] > 100 µM | [19] > 100 µM | [20] > 100 µM

N#CC(Cc1ccccc1Br)N(CCC1=CCCCC1)C(c1ccccc1)c1ccccc1 (stereo not given)
inactive: [1] > 100 µM | [2] 38.3 µM | [3] 97.1 µM | [4] 83.8 µM | [5] > 100 µM | [6] 32.8 µM | [7] 27.8 µM | [8] > 100 µM | [9] 44.3 µM | [10] 58.7 µM | [11] 51.4 µM | [12] > 100 µM | [13] > 100 µM | [14] > 100 µM | [15] 61.8 µM | [16] > 100 µM | [17] 50.8 µM | [18] > 100 µM | [19] > 100 µM | [20] > 100 µM

COc1cc2c(cc1Cl)[n+]([O-])c(C#N)c(N1CCN(c3ccc([N+](=O)[O-])cc3)CC1)[n+]2[O-]
inactive: [1] 67.8 µM | [2] 3.48 µM | [3] 11.6 µM | [4] 7.78 µM | [5] 27.3 µM | [6] 24 µM | [7] 17.1 µM | [8] 10.3 µM | [9] 9.29 µM | [10] 12.4 µM | [11] 28.6 µM | [12] 23.9 µM | [13] 15.5 µM | [14] 34.8 µM | [15] 14.8 µM | [16] 17.9 µM | [17] 34.4 µM | [18] 13.8 µM | [19] 49.3 µM | [20] 14.8 µM

Cc1noc(NS(=O)(=O)c2ccc(NC(=O)c3ccc4[nH]c5ccccc5c(=O)c4c3)cc2)c1C
inactive: [1] > 100 µM | [2] 26.1 µM | [3] 49.5 µM | [4] 27.4 µM | [5] > 100 µM | [6] 47.9 µM | [7] 93.3 µM | [8] 42 µM | [9] 28.1 µM | [10] 42.2 µM | [11] 80.4 µM | [12] 61.9 µM | [13] > 100 µM | [14] 35.4 µM | [15] > 100 µM | [16] 36.1 µM | [17] 37.2 µM | [18] > 100 µM | [19] 32.1 µM | [20] 27 µM
